Test results as given in article PMC4321816 (Chemistry & biology, 2011).
Numbering of substitutions follows the chain as printed.

Tests used:
[1] = molecular target: T1, PhnA (phosphonoacetate hydrolase; PhnA-N-His) (Sinorhizobium meliloti, UniProt Q92UV8); details: formed by turnover of phosphonoacetate; bidentate to metal M1
T1 sequence (Q92UV8 1-424): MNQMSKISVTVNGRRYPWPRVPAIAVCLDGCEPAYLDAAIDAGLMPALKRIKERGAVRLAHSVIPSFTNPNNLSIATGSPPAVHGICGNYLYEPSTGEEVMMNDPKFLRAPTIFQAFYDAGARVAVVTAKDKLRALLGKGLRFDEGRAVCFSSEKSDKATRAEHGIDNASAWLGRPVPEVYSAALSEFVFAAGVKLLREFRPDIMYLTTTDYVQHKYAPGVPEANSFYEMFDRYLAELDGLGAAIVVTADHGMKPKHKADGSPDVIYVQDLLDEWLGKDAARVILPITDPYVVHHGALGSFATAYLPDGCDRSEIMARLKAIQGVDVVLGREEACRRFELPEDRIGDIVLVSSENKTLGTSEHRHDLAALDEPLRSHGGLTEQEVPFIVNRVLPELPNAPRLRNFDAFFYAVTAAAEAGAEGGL

[2] = molecular target: T2, PhnA (phosphonoacetate hydrolase; PhnA-N-His) (Sinorhizobium meliloti, UniProt Q92UV8, T68A); test: co-crystal structure, […] Å; format: binding; details: with 2 mM ZnCl2; active site, phosphonate at M2, carboxylate at M1
T2 sequence (Q92UV8 1-424 T68A): T1 sequence (Q92UV8 1-424) with T68A

[3] = molecular target: T1, PhnA (phosphonoacetate hydrolase; PhnA-N-His); test: co-crystal structure, […] Å; format: binding; details: covalent; transition state mimic on Thr68, di-zinc active site

CC(=O)O [acetate]
crystal structure, 2.0 Å, crystals soaked with phosphonoacetate [1]: electron density consistent with an acetate ion bound to the M1 metal ion

O=C(O)CP(=O)(O)O [phosphonoacetate]
co-crystal structure, 2.0 Å [2]: Crystals for the T68A mutant showed robust density for PnA in the active site

[O]=[V]([OH])([OH])[OH] [vanadate]
co-crystal structure, 1.8 Å (Table 1) [3]: we have determined the co-crystal structure of a covalent complex with orthovanadate
